Source: patent US12070036B2, “Methods and compositions comprising nematode signalling compounds” (PHERONYM, INC., priority 2018, dated 2024)

System: RKN J2
Test: RKN J2 dispersal away from the pheromone application site
Format: in vivo, Meloidogyne spp.
Settings: for activity as a repellent (in words): single ascarosides vs presented together
Experimental: FIG. 2. RKN J2 responds to pheromones purified from S. carpocapsae growth medium within 2 hours. The 57% MeOH extraction only contains one pheromone, ascr #10, which is also secreted by RKN. […] The 73% MeOH extraction includes both ascr #10 and ascr #18. Both of these pheromones are released by RKN J2. We can already see a synergy and recognition and 15% more J2 left the pheromone application spot due to recognition of the pheromone signals. […] The figure is representative of the 2 independent experiments repeated in time and each experiment has 6 independent replications.
FIG. 3. RKN J2 response to pheromones extracted from S. feltiae growth medium within 2 h of exposure. Control has only water. Pheromones resuspended in water. The experiment has 5 independent replications.
We extracted the pheromones with 58% and 73% Methyl alcohol using S. carpocapsae insect host cadavers, the growth medium for S. carpocapsae. Then the extracts were dried and re-suspended in MILLIQ water. Centrifuged at 6000 r.c.f. to remove insoluble material and then dried using a speed vac. […] This particular fraction only included one ascaroside, ascr #10, common between RKN and S. carpocapsae. […] The 73% MeOH extract contained two common pheromones, ascr #10 and ascr #18, between RKN and S. carpocapsae. The two pheromones together caused 15% more RKN J2 to move away from the application site compared to water control.
We tested this with one more Steinernema species growth medium. We extracted the pheromones using 70% MeOH from the S. feltiae growth medium (insect host cadavers). This particular extraction contains the two common ascarosides, ascr #10 and ascr #18, between RKN and Steinernema species.
Since ascr #10 and […] are the only common ascarosides between Steinernema and RKN species, we looked at other species that release ascarosides that RKN J2 release.

C[C@H](CCCCCCC(=O)O)O[C@@H]1O[C@@H](C)[C@H](O)C[C@H]1O [ascr #10]
RKN J2 response to pheromones (in words) (RKN J2, within 2 hours, vs water control): did not elicit any response
activity as a repellent (in words): not active

C[C@H](CCCCCCCCC(=O)O)O[C@@H]1O[C@@H](C)[C@H](O)C[C@H]1O [ascr #18]
activity as a repellent (in words): not active
